Test results taken from ChEMBL document CHEMBL3991601, “The target landscape of clinical kinase drugs” (Science, 2017).
Activity calls are given as the source filed them.

Tests used:
Activin receptor type-2B = Activin receptor type-2B (Homo sapiens, UniProt Q13705)
[1] = molecular target: Bone morphogenetic protein receptor type-1B (Homo sapiens, UniProt O00238)
[2] = molecular target: ATP-dependent RNA helicase DDX3X (Homo sapiens, UniProt O00571)
Scaffold protein ILK = molecular target: T1, Scaffold protein ILK (Homo sapiens, UniProt Q13418)
T1 sequence (Q13418 whole entry): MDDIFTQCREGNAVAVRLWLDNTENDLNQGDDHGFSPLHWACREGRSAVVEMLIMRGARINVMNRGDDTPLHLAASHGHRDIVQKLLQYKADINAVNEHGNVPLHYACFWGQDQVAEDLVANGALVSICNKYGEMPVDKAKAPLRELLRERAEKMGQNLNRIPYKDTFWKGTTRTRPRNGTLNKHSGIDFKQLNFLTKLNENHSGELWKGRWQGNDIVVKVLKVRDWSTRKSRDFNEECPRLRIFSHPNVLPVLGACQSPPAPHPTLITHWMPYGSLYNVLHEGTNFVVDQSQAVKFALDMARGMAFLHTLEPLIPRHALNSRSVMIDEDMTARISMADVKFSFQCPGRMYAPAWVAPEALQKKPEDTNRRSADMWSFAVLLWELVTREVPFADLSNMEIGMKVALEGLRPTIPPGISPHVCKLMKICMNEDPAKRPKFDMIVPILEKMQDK

[3] = molecular target: T2, Serine/threonine-protein kinase NLK (Homo sapiens, UniProt Q9UBE8)
T2 sequence (Q9UBE8 whole entry): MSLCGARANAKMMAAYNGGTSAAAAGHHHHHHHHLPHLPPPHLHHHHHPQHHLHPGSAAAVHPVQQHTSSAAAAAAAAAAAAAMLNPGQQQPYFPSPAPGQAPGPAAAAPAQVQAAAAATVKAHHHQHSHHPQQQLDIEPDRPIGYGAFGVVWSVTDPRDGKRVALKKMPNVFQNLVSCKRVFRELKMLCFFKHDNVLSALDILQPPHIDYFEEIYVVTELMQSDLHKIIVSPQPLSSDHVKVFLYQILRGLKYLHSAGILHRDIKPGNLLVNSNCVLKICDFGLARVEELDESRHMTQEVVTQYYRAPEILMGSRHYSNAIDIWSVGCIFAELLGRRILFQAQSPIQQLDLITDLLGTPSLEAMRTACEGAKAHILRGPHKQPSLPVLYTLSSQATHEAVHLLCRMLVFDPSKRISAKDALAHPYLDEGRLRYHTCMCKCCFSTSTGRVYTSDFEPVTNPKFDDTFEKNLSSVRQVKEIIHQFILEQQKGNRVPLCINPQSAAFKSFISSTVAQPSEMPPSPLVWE

[4] = molecular target: T3, Bifunctional phosphoribosylaminoimidazole carboxylase/phosphoribosylaminoimidazole succinocarboxamide synthetase (Homo sapiens, UniProt P22234)
T3 sequence (P22234 whole entry): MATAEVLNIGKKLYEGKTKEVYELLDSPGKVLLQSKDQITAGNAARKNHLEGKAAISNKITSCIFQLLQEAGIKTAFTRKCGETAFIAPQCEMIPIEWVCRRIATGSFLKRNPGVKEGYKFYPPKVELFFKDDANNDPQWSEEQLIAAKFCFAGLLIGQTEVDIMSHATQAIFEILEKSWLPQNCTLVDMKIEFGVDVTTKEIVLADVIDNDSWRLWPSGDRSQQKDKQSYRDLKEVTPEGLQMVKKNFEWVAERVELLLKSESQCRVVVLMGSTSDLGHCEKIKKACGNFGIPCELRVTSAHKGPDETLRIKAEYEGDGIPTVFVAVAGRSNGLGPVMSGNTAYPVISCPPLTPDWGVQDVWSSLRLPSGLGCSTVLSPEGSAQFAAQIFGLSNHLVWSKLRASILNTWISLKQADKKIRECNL

[5] = molecular target: Platelet-derived growth factor receptor beta (Homo sapiens, UniProt P09619)
Platelet-derived growth factor receptor beta, sequence (P09619 whole entry): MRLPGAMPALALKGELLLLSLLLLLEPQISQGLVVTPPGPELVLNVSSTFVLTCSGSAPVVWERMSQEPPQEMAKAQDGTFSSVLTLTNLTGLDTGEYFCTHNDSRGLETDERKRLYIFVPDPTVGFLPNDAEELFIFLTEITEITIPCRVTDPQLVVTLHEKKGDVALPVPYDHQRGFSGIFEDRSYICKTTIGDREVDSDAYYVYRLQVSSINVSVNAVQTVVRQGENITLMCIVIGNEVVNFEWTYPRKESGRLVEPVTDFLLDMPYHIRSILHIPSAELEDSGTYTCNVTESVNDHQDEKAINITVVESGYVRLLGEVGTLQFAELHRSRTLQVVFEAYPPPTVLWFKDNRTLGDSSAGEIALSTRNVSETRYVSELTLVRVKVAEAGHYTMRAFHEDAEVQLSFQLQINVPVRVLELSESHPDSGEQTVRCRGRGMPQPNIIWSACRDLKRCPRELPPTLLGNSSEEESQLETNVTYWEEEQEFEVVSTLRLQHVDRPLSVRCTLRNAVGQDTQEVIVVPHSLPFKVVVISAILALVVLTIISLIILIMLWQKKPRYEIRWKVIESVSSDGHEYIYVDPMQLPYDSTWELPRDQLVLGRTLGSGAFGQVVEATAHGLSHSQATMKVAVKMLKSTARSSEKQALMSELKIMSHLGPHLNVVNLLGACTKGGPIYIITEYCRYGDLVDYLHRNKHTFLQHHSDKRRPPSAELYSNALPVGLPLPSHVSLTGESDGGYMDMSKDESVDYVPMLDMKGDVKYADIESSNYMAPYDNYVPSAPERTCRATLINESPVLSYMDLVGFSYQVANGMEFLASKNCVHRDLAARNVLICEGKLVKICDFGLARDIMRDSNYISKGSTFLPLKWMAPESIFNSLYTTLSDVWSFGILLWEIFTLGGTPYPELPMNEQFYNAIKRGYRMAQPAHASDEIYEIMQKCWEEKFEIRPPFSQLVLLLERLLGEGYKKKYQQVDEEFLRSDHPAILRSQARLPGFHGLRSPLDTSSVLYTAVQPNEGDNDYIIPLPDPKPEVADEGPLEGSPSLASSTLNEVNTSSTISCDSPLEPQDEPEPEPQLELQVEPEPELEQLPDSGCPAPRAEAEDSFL

[6] = molecular target: cAMP-dependent protein kinase type II-alpha regulatory subunit (Homo sapiens, UniProt P13861)
cAMP-dependent protein kinase type II-alpha regulatory subunit, sequence (P13861 whole entry): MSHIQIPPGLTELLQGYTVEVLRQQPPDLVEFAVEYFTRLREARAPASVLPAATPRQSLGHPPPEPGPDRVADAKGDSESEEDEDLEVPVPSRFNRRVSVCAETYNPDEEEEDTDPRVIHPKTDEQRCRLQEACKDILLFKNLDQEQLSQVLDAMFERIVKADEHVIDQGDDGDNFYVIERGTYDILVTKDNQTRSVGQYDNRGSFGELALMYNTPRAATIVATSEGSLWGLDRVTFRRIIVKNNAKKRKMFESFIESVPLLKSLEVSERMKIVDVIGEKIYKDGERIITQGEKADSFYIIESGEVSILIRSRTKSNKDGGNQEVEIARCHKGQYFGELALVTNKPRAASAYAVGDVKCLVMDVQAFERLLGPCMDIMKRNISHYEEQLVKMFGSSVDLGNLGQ

[7] = molecular target: Protein-tyrosine kinase 6 (Homo sapiens, UniProt Q13882)
Protein-tyrosine kinase 6, sequence (Q13882 whole entry): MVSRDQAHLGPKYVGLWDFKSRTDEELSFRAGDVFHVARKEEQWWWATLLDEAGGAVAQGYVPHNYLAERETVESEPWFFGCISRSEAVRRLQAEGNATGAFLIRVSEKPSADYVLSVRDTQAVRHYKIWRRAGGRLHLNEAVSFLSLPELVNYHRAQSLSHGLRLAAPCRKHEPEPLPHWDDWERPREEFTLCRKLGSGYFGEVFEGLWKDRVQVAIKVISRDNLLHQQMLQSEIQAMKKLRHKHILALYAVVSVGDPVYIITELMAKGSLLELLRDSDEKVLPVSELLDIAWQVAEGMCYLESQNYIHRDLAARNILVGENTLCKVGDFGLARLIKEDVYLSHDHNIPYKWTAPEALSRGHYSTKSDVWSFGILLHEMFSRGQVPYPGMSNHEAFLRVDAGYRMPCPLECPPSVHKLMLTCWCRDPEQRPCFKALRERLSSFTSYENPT

[8] = molecular target: Ribosomal protein S6 kinase alpha-3 (Homo sapiens, UniProt P51812)
Ribosomal protein S6 kinase alpha-3, sequence (P51812 whole entry): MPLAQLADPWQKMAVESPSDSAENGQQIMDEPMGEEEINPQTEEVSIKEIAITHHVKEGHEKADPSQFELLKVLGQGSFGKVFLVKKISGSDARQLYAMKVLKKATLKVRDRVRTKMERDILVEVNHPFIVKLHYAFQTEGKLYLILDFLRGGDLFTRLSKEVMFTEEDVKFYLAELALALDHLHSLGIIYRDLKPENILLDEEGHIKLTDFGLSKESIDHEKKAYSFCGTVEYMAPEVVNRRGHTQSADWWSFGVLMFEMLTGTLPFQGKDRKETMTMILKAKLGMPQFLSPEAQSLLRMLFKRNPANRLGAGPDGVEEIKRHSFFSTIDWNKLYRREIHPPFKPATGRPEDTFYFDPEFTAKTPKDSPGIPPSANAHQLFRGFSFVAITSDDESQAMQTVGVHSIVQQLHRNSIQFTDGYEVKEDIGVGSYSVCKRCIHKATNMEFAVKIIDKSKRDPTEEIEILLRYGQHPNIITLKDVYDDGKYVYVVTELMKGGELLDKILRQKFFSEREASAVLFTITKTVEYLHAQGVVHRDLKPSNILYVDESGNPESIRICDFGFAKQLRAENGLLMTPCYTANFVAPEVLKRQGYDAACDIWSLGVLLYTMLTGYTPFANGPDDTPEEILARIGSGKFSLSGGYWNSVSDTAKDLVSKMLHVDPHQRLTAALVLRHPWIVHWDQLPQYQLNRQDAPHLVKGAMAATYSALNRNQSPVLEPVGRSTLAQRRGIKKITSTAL

[9] = molecular target: T4, Tyrosine--tRNA ligase, cytoplasmic (Homo sapiens, UniProt P54577)
T4 sequence (P54577 whole entry): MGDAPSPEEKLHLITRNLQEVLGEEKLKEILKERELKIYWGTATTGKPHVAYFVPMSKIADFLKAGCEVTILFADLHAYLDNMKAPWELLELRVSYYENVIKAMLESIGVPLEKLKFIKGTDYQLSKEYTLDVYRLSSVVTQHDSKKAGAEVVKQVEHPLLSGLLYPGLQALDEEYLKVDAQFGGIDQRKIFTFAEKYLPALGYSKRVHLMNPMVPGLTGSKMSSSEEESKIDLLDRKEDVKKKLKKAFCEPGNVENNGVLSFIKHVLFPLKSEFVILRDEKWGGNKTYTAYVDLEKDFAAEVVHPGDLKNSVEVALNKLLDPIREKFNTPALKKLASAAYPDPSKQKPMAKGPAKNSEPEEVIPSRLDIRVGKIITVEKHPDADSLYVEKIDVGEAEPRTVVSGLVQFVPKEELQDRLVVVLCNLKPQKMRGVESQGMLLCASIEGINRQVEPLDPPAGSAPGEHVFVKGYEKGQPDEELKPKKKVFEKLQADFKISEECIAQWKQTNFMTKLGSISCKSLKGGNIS
Note: in the data inactive means no Kd found up to 30 µM.

Activin receptor type-2B, sequence (Q13705 whole entry): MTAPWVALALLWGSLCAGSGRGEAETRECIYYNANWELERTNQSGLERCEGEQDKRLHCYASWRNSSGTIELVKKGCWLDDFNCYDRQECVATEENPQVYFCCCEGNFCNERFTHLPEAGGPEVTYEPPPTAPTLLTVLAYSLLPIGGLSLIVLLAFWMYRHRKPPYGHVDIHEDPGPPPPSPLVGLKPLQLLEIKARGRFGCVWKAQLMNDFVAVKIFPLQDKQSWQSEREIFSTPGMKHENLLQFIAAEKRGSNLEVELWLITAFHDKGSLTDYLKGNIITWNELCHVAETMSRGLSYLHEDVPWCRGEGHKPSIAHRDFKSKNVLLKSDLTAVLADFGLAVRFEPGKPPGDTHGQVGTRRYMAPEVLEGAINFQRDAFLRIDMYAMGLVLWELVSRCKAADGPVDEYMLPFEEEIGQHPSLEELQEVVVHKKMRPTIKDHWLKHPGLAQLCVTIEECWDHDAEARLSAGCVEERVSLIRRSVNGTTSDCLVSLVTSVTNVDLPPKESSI
ATP-dependent RNA helicase DDX3X, sequence (O00571 whole entry): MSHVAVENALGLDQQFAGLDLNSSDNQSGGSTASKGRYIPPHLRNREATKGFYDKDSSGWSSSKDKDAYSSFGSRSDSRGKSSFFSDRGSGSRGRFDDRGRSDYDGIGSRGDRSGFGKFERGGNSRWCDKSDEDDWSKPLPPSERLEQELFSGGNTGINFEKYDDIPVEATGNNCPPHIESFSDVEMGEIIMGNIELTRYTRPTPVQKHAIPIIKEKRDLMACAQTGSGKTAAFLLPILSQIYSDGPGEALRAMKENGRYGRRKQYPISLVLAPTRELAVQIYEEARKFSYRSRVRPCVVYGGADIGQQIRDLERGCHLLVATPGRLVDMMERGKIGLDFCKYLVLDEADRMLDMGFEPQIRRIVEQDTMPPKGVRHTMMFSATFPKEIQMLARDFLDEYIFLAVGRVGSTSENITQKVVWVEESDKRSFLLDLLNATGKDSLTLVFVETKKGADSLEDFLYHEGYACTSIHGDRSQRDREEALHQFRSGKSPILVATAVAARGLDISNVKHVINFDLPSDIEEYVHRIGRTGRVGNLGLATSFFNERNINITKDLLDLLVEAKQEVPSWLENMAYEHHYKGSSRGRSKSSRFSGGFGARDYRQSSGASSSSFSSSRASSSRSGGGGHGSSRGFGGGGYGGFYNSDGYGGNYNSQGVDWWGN
Bone morphogenetic protein receptor type-1B, sequence (O00238 whole entry): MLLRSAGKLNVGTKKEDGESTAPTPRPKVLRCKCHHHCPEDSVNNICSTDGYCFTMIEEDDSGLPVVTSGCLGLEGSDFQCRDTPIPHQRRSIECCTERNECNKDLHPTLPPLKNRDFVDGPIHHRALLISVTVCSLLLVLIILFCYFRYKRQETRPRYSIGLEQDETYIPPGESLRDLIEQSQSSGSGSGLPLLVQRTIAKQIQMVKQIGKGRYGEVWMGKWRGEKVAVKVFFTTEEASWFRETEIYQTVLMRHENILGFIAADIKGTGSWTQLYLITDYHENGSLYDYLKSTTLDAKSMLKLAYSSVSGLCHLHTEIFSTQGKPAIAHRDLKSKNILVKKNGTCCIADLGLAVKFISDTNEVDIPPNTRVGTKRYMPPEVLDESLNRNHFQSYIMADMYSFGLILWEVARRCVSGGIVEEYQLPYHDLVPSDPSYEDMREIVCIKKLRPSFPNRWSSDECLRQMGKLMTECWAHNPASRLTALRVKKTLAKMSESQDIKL

Structure (SMILES)	Kd (Activin receptor type-2B)	Kd [1]	Kd [2]	Kd (Scaffold protein ILK)	Kd [3]	Kd [4]	Kd [5]	Kd [6]	Kd [7]	Kd [8]	Kd [9]
C=CC(=O)Nc1cc(Nc2nccc(-c3cn(C)c4ccccc34)n2)c(OC)cc1N(C)CCN(C)C [OSIMERTINIB]	> 30 µM (inactive)	> 30 µM (inactive)	> 30 µM (inactive)	> 30 µM (inactive)	> 30 µM (inactive)	> 30 µM (inactive)	> 30 µM (inactive)	> 30 µM (inactive)	> 30 µM (inactive)	> 30 µM (inactive)	> 30 µM (inactive)
FC(F)(F)c1ccc(CNc2ccc(Cc3c[nH]c4ncc(Cl)cc34)cn2)cn1 [PEXIDARTINIB]	> 30 µM (inactive)	> 30 µM (inactive)	> 30 µM (inactive)	> 30 µM (inactive)	> 30 µM (inactive)	> 30 µM (inactive)	> 30 µM (inactive)	> 30 µM (inactive)	> 30 µM (inactive)	> 30 µM (inactive)	> 30 µM (inactive)
O=C(NC[C@H](O)CO)c1ccncc1Nc1ccc(I)cc1F [PIMASERTIB]	> 30 µM (inactive)	> 30 µM (inactive)	> 30 µM (inactive)	> 30 µM (inactive)	> 30 µM (inactive)	> 30 µM (inactive)	> 30 µM (inactive)	> 30 µM (inactive)	> 30 µM (inactive)	> 30 µM (inactive)	> 30 µM (inactive)
COCCN1CCN(Cc2ccc(-c3n[nH]c4c3C(=O)c3c(NC(=O)NN5CCOCC5)cccc3-4)cc2)CC1 [RGB-286638]	> 30 µM (inactive)	> 30 µM (inactive)	> 30 µM (inactive)	> 30 µM (inactive)	> 30 µM (inactive)	> 30 µM (inactive)	1.36 µM	> 30 µM (inactive)	> 30 µM (inactive)	> 30 µM (inactive)	> 30 µM (inactive)
O=C(O)c1ccc2c(c1)nc(Nc1cccc(Cl)c1)c1ccncc12 [SILMITASERTIB]	> 30 µM (inactive)	> 30 µM (inactive)	> 30 µM (inactive)	> 30 µM (inactive)	> 30 µM (inactive)	> 30 µM (inactive)	> 30 µM (inactive)	> 30 µM (inactive)	> 30 µM (inactive)	> 30 µM (inactive)	> 30 µM (inactive)
CC(C)(O)CC(=O)NCCn1ccc2ncnc(Nc3ccc(Oc4cccc(C(F)(F)F)c4)c(Cl)c3)c21 [TAK-285]	> 30 µM (inactive)	1.63 µM	> 30 µM (inactive)	> 30 µM (inactive)	0.816 µM	> 30 µM (inactive)	> 30 µM (inactive)	> 30 µM (inactive)	> 30 µM (inactive)	> 30 µM (inactive)	> 30 µM (inactive)
Cn1c(=O)c(F)c(Nc2ccc(I)cc2F)c2c(=O)n(C[C@@H](O)CO)cnc21 [TAK-733]	> 30 µM (inactive)	> 30 µM (inactive)	> 30 µM (inactive)	> 30 µM (inactive)	> 30 µM (inactive)	> 30 µM (inactive)	> 30 µM (inactive)	> 30 µM (inactive)	> 30 µM (inactive)	> 30 µM (inactive)	> 30 µM (inactive)
CNC(=O)c1cc(COc2nnc(Nc3ccc(Cl)cc3)c3ccoc23)ccn1 [TELATINIB]	> 30 µM (inactive)	> 30 µM (inactive)	> 30 µM (inactive)	0.032 µM	> 30 µM (inactive)	> 30 µM (inactive)	0.555 µM (active)	> 30 µM (inactive)	> 30 µM (inactive)	> 30 µM (inactive)	> 30 µM (inactive)
Cc1cc(-c2cc(OC(=O)c3ccccc3)ccc2Cl)cc2nnc(Nc3ccc(OCCN4CCCC4)cc3)nc12 [TG100-801]	0.419 µM	> 30 µM (inactive)	> 30 µM (inactive)	> 30 µM (inactive)	> 30 µM (inactive)	> 30 µM (inactive)	0.109 µM (active)	> 30 µM (inactive)	> 30 µM (inactive)	> 30 µM (inactive)	> 30 µM (inactive)
C[C@@H]1COC(Nc2ccc3ncnc(Nc4ccc(OCc5nccs5)c(Cl)c4)c3c2)=N1 [VARLITINIB]	> 30 µM (inactive)	> 30 µM (inactive)	> 30 µM (inactive)	> 30 µM (inactive)	> 30 µM (inactive)	> 30 µM (inactive)	> 30 µM (inactive)	> 30 µM (inactive)	> 30 µM (inactive)	> 30 µM (inactive)	> 30 µM (inactive)
CNC(=O)c1cccc(-c2ccc3c(N4CCOC[C@@H]4C)nc(N4CCOC[C@@H]4C)nc3n2)c1 [VISTUSERTIB]	> 30 µM (inactive)	> 30 µM (inactive)	> 30 µM (inactive)	> 30 µM (inactive)	> 30 µM (inactive)	> 30 µM (inactive)	> 30 µM (inactive)	> 30 µM (inactive)	> 30 µM (inactive)	> 30 µM (inactive)	> 30 µM (inactive)
COc1cc2ncnc(Nc3ccc(O)cc3)c2cc1OC [WHI-P131]	> 30 µM (inactive)	> 30 µM (inactive)	> 30 µM (inactive)	> 30 µM (inactive)	> 30 µM (inactive)	> 30 µM (inactive)	> 30 µM (inactive)	> 30 µM (inactive)	> 30 µM (inactive)	> 30 µM (inactive)	> 30 µM (inactive)
